Assay results from ChEMBL document CHEMBL1139392, “Synthesis and antibacterial activities of novel oxazolidinones having cyclic sulfonamide moieties” (2008).
Values after ≈ are worked out from the molar mass of the structure shown.

How the values were obtained:
Type in all cases: functional
Staphylococcus aureus [1] = assay: Antibacterial activity against methicillin-resistant Staphylococcus aureus 1 after 18 to 20 hrs by agar dilution method
Streptococcus agalactiae = assay: Antibacterial activity against Streptococcus agalactiae ATCC 2901 after 18 to 20 hrs by agar dilution method
Enterococcus [2] = assay: Antibacterial activity against vancomycin-resistant Enterococcus 5 after 18 to 20 hrs by agar dilution method
Enterococcus [3] = assay: Antibacterial activity against vancomycin-resistant Enterococcus 1 after 18 to 20 hrs by agar dilution method
Enterococcus faecalis = assay: Antibacterial activity against Enterococcus faecalis C474 after 18 to 20 hrs by agar dilution method
Staphylococcus = assay: Antibacterial activity against coagulase negative Staphylococcus after 18 to 20 hrs by agar dilution method
Staphylococcus aureus [4] = assay: Antibacterial activity against Staphylococcus aureus C463 after 18 to 20 hrs by agar dilution method
Enterococcus faecium [5] = assay: Antibacterial activity against vancomycin-resistant Enterococcus faecium 1 after 18 to 20 hrs by agar dilution method
Streptococcus pyogenes = assay: Antibacterial activity against Streptococcus pyogenes ATCC 8736 after 18 to 20 hrs by agar dilution method
Enterococcus [6] = assay: Antibacterial activity against vancomycin-resistant Enterococcus 3 after 18 to 20 hrs by agar dilution method
Enterococcus [7] = assay: Antibacterial activity against vancomycin-resistant Enterococcus 4 after 18 to 20 hrs by agar dilution method
Enterococcus faecium [8] = assay: Antibacterial activity against vancomycin-resistant Enterococcus faecium 2 after 18 to 20 hrs by agar dilution method
Streptococcus pneumoniae = assay: Antibacterial activity against Streptococcus pneumoniae C402 after 18 to 20 hrs by agar dilution method
Enterococcus [9] = assay: Antibacterial activity against vancomycin-resistant Enterococcus 6 after 18 to 20 hrs by agar dilution method
Enterococcus faecium [10] = assay: Antibacterial activity against Enterococcus faecium C803 after 18 to 20 hrs by agar dilution method
Haemophilus influenzae = assay: Antibacterial activity against Haemophilus influenzae after 18 to 20 hrs by agar dilution method
Enterococcus [11] = assay: Antibacterial activity against vancomycin-resistant Enterococcus 2 after 18 to 20 hrs by agar dilution method

SMILES	MIC (Staphylococcus aureus [1])	MIC (Streptococcus agalactiae)	MIC (Enterococcus [2])	MIC (Enterococcus [3])	MIC (Enterococcus faecalis)	MIC (Staphylococcus)	MIC (Staphylococcus aureus [4])	MIC (Enterococcus faecium [5])	MIC (Streptococcus pyogenes)	MIC (Enterococcus [6])	MIC (Enterococcus [7])	MIC (Enterococcus faecium [8])	MIC (Streptococcus pneumoniae)	MIC (Enterococcus [9])	MIC (Enterococcus faecium [10])	MIC (Haemophilus influenzae)	MIC (Enterococcus [11])
CC(=O)NC[C@H]1CN(c2ccc(N3CCNS3(=O)=O)c(F)c2)C(=O)O1	0.2 µg/mL (≈ 0.537 µM)	0.2 µg/mL (≈ 0.537 µM)	0.39 µg/mL (≈ 1.05 µM)	0.78 µg/mL (≈ 2.09 µM)	0.2 µg/mL (≈ 0.537 µM)	0.2 µg/mL (≈ 0.537 µM)	0.39 µg/mL (≈ 1.05 µM)	0.2 µg/mL (≈ 0.537 µM)	0.2 µg/mL (≈ 0.537 µM)	0.78 µg/mL (≈ 2.09 µM)	0.78 µg/mL (≈ 2.09 µM)	0.2 µg/mL (≈ 0.537 µM)	0.2 µg/mL (≈ 0.537 µM)	0.78 µg/mL (≈ 2.09 µM)	0.39 µg/mL (≈ 1.05 µM)	0.2 µg/mL (≈ 0.537 µM)	0.39 µg/mL (≈ 1.05 µM)
CC(=O)NC[C@H]1CN(c2ccc(N3CCN(C(=O)OC(C)(C)C)S3(=O)=O)c(F)c2)C(=O)O1	12.5 µg/mL (≈ 26.5 µM)	6.25 µg/mL (≈ 13.2 µM)	12.5 µg/mL (≈ 26.5 µM)	25 µg/mL (≈ 52.9 µM)	12.5 µg/mL (≈ 26.5 µM)	12.5 µg/mL (≈ 26.5 µM)	12.5 µg/mL (≈ 26.5 µM)	12.5 µg/mL (≈ 26.5 µM)	6.25 µg/mL (≈ 13.2 µM)	6.25 µg/mL (≈ 13.2 µM)	6.25 µg/mL (≈ 13.2 µM)	12.5 µg/mL (≈ 26.5 µM)	25 µg/mL (≈ 52.9 µM)	12.5 µg/mL (≈ 26.5 µM)	25 µg/mL (≈ 52.9 µM)	6.25 µg/mL (≈ 13.2 µM)	25 µg/mL (≈ 52.9 µM)
CC(=O)NC[C@H]1CN(c2ccc(N3CCN(C)S3(=O)=O)c(F)c2)C(=O)O1	3.12 µg/mL (≈ 8.07 µM)	1.56 µg/mL (≈ 4.04 µM)	3.12 µg/mL (≈ 8.07 µM)	6.25 µg/mL (≈ 16.2 µM)	3.12 µg/mL (≈ 8.07 µM)	6.25 µg/mL (≈ 16.2 µM)	3.12 µg/mL (≈ 8.07 µM)	3.12 µg/mL (≈ 8.07 µM)	1.56 µg/mL (≈ 4.04 µM)	3.12 µg/mL (≈ 8.07 µM)	3.12 µg/mL (≈ 8.07 µM)	3.12 µg/mL (≈ 8.07 µM)	0.78 µg/mL (≈ 2.02 µM)	3.12 µg/mL (≈ 8.07 µM)	3.12 µg/mL (≈ 8.07 µM)	3.12 µg/mL (≈ 8.07 µM)	6.25 µg/mL (≈ 16.2 µM)
CCN1CCN(c2ccc(N3C[C@H](CNC(C)=O)OC3=O)cc2F)S1(=O)=O	6.25 µg/mL (≈ 15.6 µM)	3.12 µg/mL (≈ 7.79 µM)	6.25 µg/mL (≈ 15.6 µM)	3.12 µg/mL (≈ 7.79 µM)	3.12 µg/mL (≈ 7.79 µM)	6.25 µg/mL (≈ 15.6 µM)	6.25 µg/mL (≈ 15.6 µM)	6.25 µg/mL (≈ 15.6 µM)	0.78 µg/mL (≈ 1.95 µM)	3.12 µg/mL (≈ 7.79 µM)	3.12 µg/mL (≈ 7.79 µM)	3.12 µg/mL (≈ 7.79 µM)	0.78 µg/mL (≈ 1.95 µM)	3.12 µg/mL (≈ 7.79 µM)	1.56 µg/mL (≈ 3.9 µM)	3.12 µg/mL (≈ 7.79 µM)	6.25 µg/mL (≈ 15.6 µM)
CC(=O)NC[C@H]1CN(c2ccc(N3CCCN(C)S3(=O)=O)c(F)c2)C(=O)O1	1.56 µg/mL (≈ 3.9 µM)	1.56 µg/mL (≈ 3.9 µM)	1.56 µg/mL (≈ 3.9 µM)	1.56 µg/mL (≈ 3.9 µM)	1.56 µg/mL (≈ 3.9 µM)	1.56 µg/mL (≈ 3.9 µM)	1.56 µg/mL (≈ 3.9 µM)	0.78 µg/mL (≈ 1.95 µM)	0.78 µg/mL (≈ 1.95 µM)	1.56 µg/mL (≈ 3.9 µM)	1.56 µg/mL (≈ 3.9 µM)	1.56 µg/mL (≈ 3.9 µM)	0.78 µg/mL (≈ 1.95 µM)	1.56 µg/mL (≈ 3.9 µM)	1.56 µg/mL (≈ 3.9 µM)	1.56 µg/mL (≈ 3.9 µM)	1.56 µg/mL (≈ 3.9 µM)
CC(=O)NC[C@H]1CN(c2ccc(N3CC(C)NS3(=O)=O)c(F)c2)C(=O)O1 (some centres not stated)	12.5 µg/mL (≈ 32.3 µM)	3.12 µg/mL (≈ 8.07 µM)	12.5 µg/mL (≈ 32.3 µM)	6.25 µg/mL (≈ 16.2 µM)	6.25 µg/mL (≈ 16.2 µM)	12.5 µg/mL (≈ 32.3 µM)	12.5 µg/mL (≈ 32.3 µM)	6.25 µg/mL (≈ 16.2 µM)	1.56 µg/mL (≈ 4.04 µM)	6.25 µg/mL (≈ 16.2 µM)	6.25 µg/mL (≈ 16.2 µM)	6.25 µg/mL (≈ 16.2 µM)	3.12 µg/mL (≈ 8.07 µM)	12.5 µg/mL (≈ 32.3 µM)	3.12 µg/mL (≈ 8.07 µM)	6.25 µg/mL (≈ 16.2 µM)	12.5 µg/mL (≈ 32.3 µM)
CC(=O)NC[C@H]1CN(c2ccc(N3CCN(Cc4ccccc4)S3(=O)=O)c(F)c2)C(=O)O1	6.25 µg/mL (≈ 13.5 µM)	6.25 µg/mL (≈ 13.5 µM)	6.25 µg/mL (≈ 13.5 µM)	6.25 µg/mL (≈ 13.5 µM)	6.25 µg/mL (≈ 13.5 µM)	6.25 µg/mL (≈ 13.5 µM)	6.25 µg/mL (≈ 13.5 µM)	6.25 µg/mL (≈ 13.5 µM)	6.25 µg/mL (≈ 13.5 µM)	1.56 µg/mL (≈ 3.37 µM)	6.25 µg/mL (≈ 13.5 µM)	1.56 µg/mL (≈ 3.37 µM)	6.25 µg/mL (≈ 13.5 µM)	6.25 µg/mL (≈ 13.5 µM)	6.25 µg/mL (≈ 13.5 µM)	3.12 µg/mL (≈ 6.75 µM)	6.25 µg/mL (≈ 13.5 µM)
CC(=O)NC[C@H]1CN(c2ccc(N3CCOS3(=O)=O)c(F)c2)C(=O)O1	3.12 µg/mL (≈ 8.36 µM)	0.39 µg/mL (≈ 1.04 µM)	1.56 µg/mL (≈ 4.18 µM)	1.56 µg/mL (≈ 4.18 µM)	1.56 µg/mL (≈ 4.18 µM)	3.12 µg/mL (≈ 8.36 µM)	3.12 µg/mL (≈ 8.36 µM)	1.56 µg/mL (≈ 4.18 µM)	0.78 µg/mL (≈ 2.09 µM)	3.12 µg/mL (≈ 8.36 µM)	3.12 µg/mL (≈ 8.36 µM)	1.56 µg/mL (≈ 4.18 µM)	1.56 µg/mL (≈ 4.18 µM)	3.12 µg/mL (≈ 8.36 µM)	1.56 µg/mL (≈ 4.18 µM)	3.12 µg/mL (≈ 8.36 µM)	1.56 µg/mL (≈ 4.18 µM)
CC(=O)NC[C@H]1CN(c2ccc(N3CCCNS3(=O)=O)c(F)c2)C(=O)O1	1.56 µg/mL (≈ 4.04 µM)	1.56 µg/mL (≈ 4.04 µM)	3.12 µg/mL (≈ 8.07 µM)	3.12 µg/mL (≈ 8.07 µM)	1.56 µg/mL (≈ 4.04 µM)	1.56 µg/mL (≈ 4.04 µM)	3.12 µg/mL (≈ 8.07 µM)	3.12 µg/mL (≈ 8.07 µM)	1.56 µg/mL (≈ 4.04 µM)	0.78 µg/mL (≈ 2.02 µM)	3.12 µg/mL (≈ 8.07 µM)	1.56 µg/mL (≈ 4.04 µM)	0.78 µg/mL (≈ 2.02 µM)	3.12 µg/mL (≈ 8.07 µM)	1.56 µg/mL (≈ 4.04 µM)	1.56 µg/mL (≈ 4.04 µM)	1.56 µg/mL (≈ 4.04 µM)
CC(=O)NC[C@H]1CN(c2ccc(N3CCOCC3)c(F)c2)C(=O)O1 [LINEZOLID]	3.12 µg/mL (≈ 9.25 µM)	1.56 µg/mL (≈ 4.62 µM)	1.56 µg/mL (≈ 4.62 µM)	0.78 µg/mL (≈ 2.31 µM)	1.56 µg/mL (≈ 4.62 µM)	1.56 µg/mL (≈ 4.62 µM)	1.56 µg/mL (≈ 4.62 µM)	1.56 µg/mL (≈ 4.62 µM)	0.39 µg/mL (≈ 1.16 µM)	1.56 µg/mL (≈ 4.62 µM)	1.56 µg/mL (≈ 4.62 µM)	0.78 µg/mL (≈ 2.31 µM)	0.39 µg/mL (≈ 1.16 µM)	1.56 µg/mL (≈ 4.62 µM)	1.56 µg/mL (≈ 4.62 µM)	1.56 µg/mL (≈ 4.62 µM)	1.56 µg/mL (≈ 4.62 µM)
CC(=O)NC[C@H]1CN(c2ccc(N3CC(C)(C)NS3(=O)=O)c(F)c2)C(=O)O1	12.5 µg/mL (≈ 31.2 µM)	12.5 µg/mL (≈ 31.2 µM)	12.5 µg/mL (≈ 31.2 µM)	25 µg/mL (≈ 62.4 µM)	12.5 µg/mL (≈ 31.2 µM)	12.5 µg/mL (≈ 31.2 µM)	12.5 µg/mL (≈ 31.2 µM)	12.5 µg/mL (≈ 31.2 µM)	6.25 µg/mL (≈ 15.6 µM)	6.25 µg/mL (≈ 15.6 µM)	12.5 µg/mL (≈ 31.2 µM)	12.5 µg/mL (≈ 31.2 µM)	12.5 µg/mL (≈ 31.2 µM)	12.5 µg/mL (≈ 31.2 µM)	25 µg/mL (≈ 62.4 µM)	25 µg/mL (≈ 62.4 µM)	12.5 µg/mL (≈ 31.2 µM)
